In one test the test system is biofilm. The experiment in a line: Biofilm quantity on surface by crystal violet staining, biofilm reduction vs control. Type of test: cell-based. Conditions: for Avg Biofilm Reduction: (Treatment OD595 - Control OD595)*100/Control OD595, negative = less biofilm. The source says:
(§1) Additional testing was run to show various evaluated concentrations of chemistries including No Treatment (Control), QAT Biocide, Chemical B, and Chemical A+E for assessing biofilm reduction based on average planktonic bacterial concentrations as shown in Table 5.
The following methodology for the biofilm concentration on surface were used:
Biofilm quantity: biofilm quantity grew on surface can be determined by crystal violate staining, followed by 3 times of washing and then eluting.
Biofilm Reduction from chemical treatment is calculated by the following: (average Treatment OD595-average Control OD595)*100/average Control OD595 where the CV absorbance range used was 580-595 nm. If OD595 was <0.1, it was considered as non-biofilm formation. CV absorbance range 580-595 nm was used in different tests.

The subject of test [1] is Cooling Water Bacteria Population 2. In words: Biofilm inhibition test, 96 well microtiter plate, crystal violet stain (similar to ASTM E2799-12 MBEC assay). The test is classed as cell-based, Pseudomonas species in cooling water systems. The source says: (§2) The bacterial species used for the biofilm inhibition testing included: 1) cooling water bacterial population 1=total aerobic bacterial population that was obtained from cooling water samples in cooling water systems and grown on standard nutrient agar for aerobic bacteria, and 2) cooling water bacterial population 2=Pseudomonas species in cooling water systems. Pseudomonas species were collected from cooling water samples from selective media. The collected Pseudomonas population from cooling water systems were stored at −80° C. and re-inoculated into 100 mL fresh test medium (described below), incubated at a rotary shaker at 35° C., […] for 18-24 hours before used as a starter culture.
The concentration range for the testing of these microorganisms for the waters was 10^4-10^8 CFU/ml.
The following Examples utilized a 96-well microtiter plate and aerobic incubation.
The Biofilm inhibition testing utilized a test medium with a final concentration of 16% test medium in the water. […]
(§3) To quantify the biofilm and effect of the chemicals, the minimal biofilm eradication concentration (MBEC) using a method similar to the ASTM method for Testing disinfectant efficacy against Pseudomonas aeruginosa Biofilm using MBEC Assay (E2799-12), Standard Test Method for Testing Disinfectant Efficacy against Pseudomonas aeruginosa Biofilm using MBEC Assay. […]

The next test deals with planktonic bacteria. The experiment in a line: Average planktonic bacterial concentration in liquid culture (plate count / OD600 turbidity). To be noted: control 8.7. The test is classed as cell-based.
Source text: as §1
The following methodology for the bacterial concentration in liquid culture were used:
Plate count: plate the treated bacterial mixture after serial dilutions with required mediums like R2A, Petrifilms etc.
(§4) OD600 turbidity: bacterial concentration is correlated with the medium turbidity, The planktonic concentration can be calculated using a turbidity to bacterial count concentration model. If OD600 is <0.1, it is considered bacterial counts <10^3 cfu/ml.

The test system of test [2] is Cooling Water Bacteria Population 1. The experiment in a line: Biofilm inhibition test, 96 well microtiter plate, crystal violet stain (similar to ASTM E2799-12 MBEC assay). The test is classed as cell-based.
Source text: as §2, with “culture. […]” for “culture.”
as §3
The control where there was no chemical treatment present indicated a steady presence of biofilm build up between absorbance 0.5 to 0.6. The biofilm concentrations are correlated to the absorbance at wavelength 580-595 nm (depicted in figures as Obs 580 nm). […]

For test [3], the system named is Bact P1 (Cooling Water Bacteria Population 1), planktonic growth. The experiment in a line: Planktonic inhibition (minimum inhibition concentration in liquid culture). The test is classed as cell-based.
Source text: (§5) Another plate was run according to the same procedures outlined in Examples 1-3. The experiment tested Chemicals including Alkyl Poly Glucoside, QAT Biocide, Chemical B, Chemical A+D for Planktonic inhibition as well as Biofilm Inhibition as reflected in Table 4.
(§6) The results in Table 4 show minimum biofilm inhibition concentrations (ppm) when treating different bacterial populations with each of the chemicals alone.
(§7) Minimum Inhibition Concentration (MIC): at this concentration, bacterial population stopped growth under the above incubation conditions
as §4

Test [4] concerns Bact P2 (Cooling Water Bacteria Population 2), planktonic growth. The description is as above. The test is classed as cell-based. To be noted: minimum inhibitory concentration.
Source text: as §5, §6, §7, §4

Test [5] relates to indigenous microbial populations of cooling water sources. The experiment in a line: MIC of hypochlorite (as free chlorine) for biofilm formation in commercial cooling water sources. Type of test: cell-based. Conditions: for MIC hypochlorite: hypochlorite alone, as free chlorine. Here is the method: Additional testing was completed to show the benefit of reducing a biocidal dose with the method of preventing biofilms described herein. Various commercial cooling water sources were evaluated for the MIC of hypochlorite (Minimum Inhibition Concentration as free chlorine for biofilm formation) as the biocide dosed with the Chemistry A+Chemistry E. The test conditions and results are shown in Table 6.
Under certain conditions the biocide dosing requirement was reduced by over 90%.

[6] abbreviates: concentration giving biofilm reduction.
Where [7] appears, read: minimum biofilm inhibition concentration.

We go through 2 compounds from US20250368552A1, “INHIBITION OF BIOFILMS GROWTH IN PROCESS WATERS WITH MICROBIAL INTERACTIVE COMPOSITIONS” (ECOLAB USA INC., priority 2024, published 2025).

Turning to `CCCCCCCCCC[N+](C)(C)CCCCCCCCCC.[Cl-]` [QATS Biocide, Didecyl Dimethyl Ammonium Chloride], the “Avg Biofilm Reduction” value was 49.9% in the test with biofilm (1.6 ppm); 54.0% in the test on biofilm (3.1 ppm); 108.4% in the test with biofilm (6.2 ppm); −3.5% with biofilm (12.5 ppm); 34.7% in the test on biofilm (25.0 ppm); −89.1% in the test on biofilm (50.0 ppm). In the test with biofilm (100.0 ppm), the “Avg Biofilm Reduction” value is −12.1%. The “Concentration showing both planktonic and biofilm control” value with biofilm (Table 5) is on record as “greater than 50 ppm”. Further, the “Biofilm reduction Bact P2” value in test [1] (setting [6]) turned out to be 0.8 ppm. In addition, the “Total Biofilm Inhibition Bact P2” value in test [1] (setting [7]) was determined as 1.6 ppm. The “Avg Planktonic Bacterial Conc” value was 8.672 Log cfu/ml with planktonic bacteria (1.6 ppm); 8.688 Log cfu/ml in the test with planktonic bacteria (3.1 ppm); 8.609 Log cfu/ml in the test on planktonic bacteria (6.2 ppm); 8.492 Log cfu/ml in the test on planktonic bacteria (12.5 ppm); 8.590 Log cfu/ml with planktonic bacteria (25.0 ppm); less than 3.000 Log cfu/ml with planktonic bacteria (50.0 ppm). Also, in the test on planktonic bacteria (100.0 ppm), the “Avg Planktonic Bacterial Conc” value was less than 3.000 Log cfu/ml. In addition, the “Biofilm Reduction Bact P1” value in test [2] (setting [6]) is given as 0.8 ppm. Also, in test [2] (setting [7]), the “Total Biofilm Inhibition Bact P1” value was found to be 6 ppm. In test [3] (Table 4, Bact P1 and Bact P2), the “Concentration that effectively killed planktonic bacteria” value is reported as not above 3 ppm. For the same compound, the “Planktonic Inhibition Bact P1” value in test [3] (minimum inhibitory concentration, Bact P1) stood at 3 ppm. Further, the “Planktonic Inhibition Bact P2” value in test [4] is reported as 1.6 ppm.
Regarding `OCl` [hypochlorite], the MIC hypochlorite in test [5] (Cooling Water Source 1) was found to be 25 ppm; in test [5] (Cooling Water Source 2), 25 ppm; in test [5] (Cooling Water Source 3) it was 12.5 ppm; in test [5] (Cooling Water Source 4) it was 25 ppm. The “MIC hypochlorite (ppm) With 6 ppm Chemistry A + Chemistry E” value is reported as 3.1 ppm in test [5] (Cooling Water Source 1), 6.3 ppm in test [5] (Cooling Water Source 2), 0.8 ppm in test [5] (Cooling Water Source 3) and 12.5 ppm in test [5] (Cooling Water Source 4).
